Results: US20250170124A1, “METHODS OF DIAGNOSING AND TREATING NEURODEGENERATIVE DISEASES” (The General Hospital Corporation, priority 2022, published 2025)
Where two headings read alike, the source gives them in different places.

Legend:
[1] = test system: alpha-synuclein 5′-UTR IRE (SNCA 5′UTR); experiment: Primary screen/retest: ASYN 5′-UTR IRE-driven luciferase expression in H4 cells; format: cell-based, human; settings: 48 h
[2] = test system: PGL3 5′UTR; experiment: Secondary (counterscreen) luciferase assay in H4-C cells, IRE stem-loop removed; format: cell-based, human; settings: versus SNCA 5′UTR
[3] = test system: PrP-5′UTR (prion protein IRE); format: cell-based, human; settings: versus SNCA 5′UTR
[4] = test system: alpha-synuclein; experiment: ELISA secondary screen for alpha-synuclein in SH-SY5Y cells; format: cell-based, human; parameters: Decrease syn(%) SHSY5Y cells: unit of the concentration uncertain; settings: for Decrease αsyn(%) SHSY5Y cells: Table 2; for Decrease syn(%) SHSY5Y cells: Table 3
Protocol: FIG. 2 illustrates the results of ELISA experiments with compound 10 in SH-SY5Y cells. […]
FIG. 18 illustrates alpha Synuclein ELISA (Invitrogen) measurements from SHSY5 undifferentiated neurons treated with the indicated doses (triplicate wells) of compounds 2, 13, 11, 14, 15, and 16) for 48 h.
A human ASYN ELISA kit was utilized for all ELISA experiments (Invitrogen alpha-synuclein ELISA kit KHB0061) and the kit protocol was followed.
1) Plate SH-SY5Y […] cells (Corning, 3570) at 10,000 cells/well in 50 μL phenol red free media (phenol red-free DMEM with 4.5 g/L D-glucose [Lonza, 12-917F] supplemented with 10% FBS [Lonza, 14-503E], 200 μM L-glutamine [Lonza, 17-605E], 100 μM penstrep [Lonza, 17-602E] and 200 μg/mL geneticin [Invitrogen, 10131-027]).
2) Lid plates, then incubate cells for 24 hours at 37° C., 5% CO2, 95% humidity in a tissue culture incubator.
3) Pin 100 nL of each compound into the assay plates spanning a final concentration range from 100-0.006 μM.
4) Incubate plates for 48 h at 37° C., 5% CO2, 95% humidity. Following incubation, add 5 μL of Alamar blue solution per well and allow to incubate for 1 h at 37° C., 5% CO2, 95% humidity.
5) Read Alamar blue fluorescence using a Thermo Varioskan (570 nm excitation, 585 nm emission). Remove cell media and add 30 μL cell lysis solution with protease inhibitor (G Biosciences, 786-331; 10 μL/mL).
6) Place plates on a plate shaker for 1 h, before removing 20 μL lysate. Transfer cell lysates to 500 μL Eppendorf tubes and centrifuge (Eppendorf Centrifuge 5417C) for 10 min at 13,000 rpm.
7) Add 12 μL of the cell supernatant to 48 μL of standard diluent buffer (1:5). Add these samples to ELISA plate wells. Prepare ASYN standard curve wells as described in the kit manual.
8) Add 50 μL of anti-α-Synuclein (Detection Antibody) solution to each well, tapping the plate to mix. Cover the plate with a tape seal and incubate for 3 h at RT.
9) Wash wells four times with wash buffer using a multichannel pipette and add 100 μL of anti-rabbit IgG-HRP antibody solution to each well. Cover the plate and incubate for 30 min at RT. Wash wells four times with wash buffer and add 100 μL of Stabilized Chromogen to each well. Seal the plate and incubate in the dark at RT for 30 min.
10) Finally, add 100 μL of Stop Solution to each well, tapping the plate to mix, and read absorbance at 450 nm using an Envision plate reader (Perkin Elmer).

[5] = test system: α-Synuclein; experiment: Decrease of α-syn in iPSC derived DA neurons; format: cell-based, human; parameters: Decrease syn(%) DA neurons: dose or concentration left out as unconfirmed; settings: for Decrease αsyn(%) DA neurons: Table 2; for Decrease syn(%) DA neurons: Table 3
[6] = test system: α-Synuclein; experiment: Western blots of α-syn in iPSC derived DA neuron lysates; format: cell-based, human; settings: for inhibition of α-Synuclein protein expression versus β-Syn, γ-Syn, Ferritin, APP and Prion proteins: 1 μM, normalized to β-Actin
[7] = test system: α-Syn; experiment: Decrease of α-syn in Triple SNCA cortical neurons; settings: concentration not given; for Decrease αsyn(%) X3 SNCA neurons: Table 2
[8] = test system: SNCA IRE; experiment: Spinach fluorescent assay, SNCA IRE fluorescence sensor R7
[9] = Homo sapiens, Table 2, H4 cells, luciferase, read-out: IC50/μM (SNCA 5′UTR)
[10] = Homo sapiens, read-out: IC50/M (SNCA 5′UTR)
[11] = Homo sapiens, read-out: IC50/μM (SNCA 5′UTR)
[12] = 10 μM and 1 μM compound, 72 h, β-actin standardized, N=3
[13] = Homo sapiens, Table 3, H4 cells, luciferase, read-out: IC50/M (SNCA 5′UTR)

Compound	IC50 [1, 9] [µM]	Selectivity PGL3 5′UTR ([2]; Table 2)	Selectivity PrP-5′UTR ([3]; Table 2)	Selectivity PGL3 5′UTR ([2]; Table 3)	Selectivity PrP-5′UTR ([3]; Table 3)	IC50 [1, 13] [µM]	other results
COc1cccc(N2CCN(C(=O)c3ccc(C[S+]([O-])c4ccc(C)cc4)o3)CC2)c1 (centres unmarked) [Compound 1, (4-(3-methoxyphenyl)piperazin-1-yl)(5-((p-tolylsulfinyl)methyl)furan-2-yl)methanone]	0.1	58-fold	126-fold	–	–	–	Decrease αsyn(%) SHSY5Y cells ([4]; @ 1 μM): 14-28 @ 1%
COC(=O)C1CC23C=CCN4CCC5(c6ccccc6NC15C2C)C43 (centres unmarked) [Compound 3, methyl 14-methyl-4,5,11,12-tetrahydro-1H,3a^1H,6H-3a,5a-methanoindolizino[8,1-cd]carbazole-5-carboxylate]	–	31-fold	17-fold	31-fold	17-fold	–	IC50 [1, 10]: 0.134 µM; IC50 [1, 11]: 0.134 µM; Decrease αsyn(%) SHSY5Y cells ([4]; @ 1-10 μM): 15-19 @ 1-10%; Decrease syn(%) SHSY5Y cells ([4]; @ 1-10M): 15-19 @ 1-10M %; Decrease αsyn(%) DA neurons ([5]; @ 1 μM): 60 @ 1 μM %; Decrease syn(%) DA neurons [5]: 60 @ 1M %; inhibition of α-Synuclein protein expression versus β-Syn, γ-Syn, Ferritin, APP and Prion proteins ([6]; 72 h): selectively inhibit; α-syn levels (Western blot) [6, 12]: reduced; Decrease αsyn(%) X3 SNCA neurons [7]: 50%
Cc1cc(C)cc(Nc2nc3ccc(C)cc3n3cnnc23)c1 [Compound 4, N-(3,5-dimethylphenyl)-8-methyl-[1,2,4]triazolo[4,3-a]quinoxalin-4-amine]	2.8	43-fold	18-fold	–	–	–	Decrease αsyn(%) SHSY5Y cells ([4]; @ 1 μM): 25-50 @ 1%
COc1ccc(/C=C/C(=O)c2cc(F)ccc2OC(=O)c2ccccc2)cc1OC [Compound 5, (E)-2-(3-(3,4-dimethoxyphenyl)acryloyl)-4-fluorophenyl benzoate]	0.194	66-fold	Inc.	–	–	–	Decrease αsyn(%) SHSY5Y cells ([4]; @ 0.1 μM): 20-50 @ 0.1%
O=C(c1ccc(C[S+]([O-])c2ccccc2Cl)o1)N1CCN(c2ccccc2)CC1 (centres unmarked) [Compound 6, (5-(((2-chlorophenyl)sulfinyl)methyl)furan-2-yl)(4-phenylpiperazin-1-yl)methanone]	0.1	80-fold	Inc.	–	–	–	Decrease αsyn(%) SHSY5Y cells ([4]; @ 0.1-1 μM): 21-42 @ 0.1-1%
CCC1=Nc2cc(C(=O)NCCCOC)ccc2Sc2ccccc21 [Compound 7, 11-ethyl-N-(3-methoxypropyl)dibenzo[b,f][1,4]thiazepine-8-carboxamide]	0.127	68-fold	127-fold	–	–	–	Decrease αsyn(%) SHSY5Y cells ([4]; @ 1 μM): 30-60 @ 1%
CCOC(=O)c1[nH]c(C)c(C(=O)c2cc(F)ccc2F)c1C [Compound 8, ethyl 4-(2,5-difluorobenzoyl)-3,5-dimethyl-1H-pyrrole-2-carboxylate]	0.2	53-fold	58-fold	–	–	–	Decrease αsyn(%) SHSY5Y cells ([4]; @ 0.1-1 μM): 20-40 @ 0.1-1%
COC(=O)c1c(NC(=O)c2ccc([N+](=O)[O-])o2)sc2c1CCN(C(C)C)C2 [Compound 9, methyl 6-isopropyl-2-(5-nitrofuran-2-carboxamido)-4,5,6,7-tetrahydrothieno[2,3-c]pyridine-3-carboxylate]	–	1,200-fold	–	1,200-fold	–	–	IC50 [1, 10]: 0.1 µM; IC50 [1, 11]: 0.1 µM; Decrease αsyn(%) DA neurons ([5]; @ 1 μM): 90 @ 1 μM %; Decrease syn(%) DA neurons [5]: 90 @ 1M %; inhibition of α-Synuclein protein expression versus β-Syn, γ-Syn, Ferritin, APP and Prion proteins ([6]; 72 h): selectively inhibit; α-syn levels (Western blot) [6, 12]: reduced
CN(C)c1nc(N)nc(CSc2nnnn2-c2cccc3ccccc23)n1 [Compound 10, N^2,N^2-dimethyl-6-(((1-(naphthalen-1-yl)-1H-tetrazol-5-yl)thio)methyl)-1,3,5-triazine-2,4-diamine]	–	34-fold	35-fold	34-fold	35-fold	–	IC50 [1, 10]: 1.8 to 3.5 µM; IC50 [1, 11]: 1.8 to 3.5 µM; Decrease αsyn(%) SHSY5Y cells ([4]; @ 0.1 μM): 19-38 @ 0.1%; Decrease syn(%) SHSY5Y cells ([4]; @ 0.1 µM): 19-38 @ 0.1M %; Decrease αsyn(%) DA neurons ([5]; @ 1 μM): 60 @ 1 μM %; Decrease syn(%) DA neurons [5]: 60 @ 1M %; inhibition of α-Synuclein protein expression versus β-Syn, γ-Syn, Ferritin, APP and Prion proteins ([6]; 72 h): selectively inhibit; α-syn levels (Western blot) [6, 12]: reduced; Decrease αsyn(%) X3 SNCA neurons [7]: 25%
COc1cccc(N2CCN(C(=O)c3ccc(C[S+]([O-])c4ccc(C)cc4)o3)CC2)c1 (centres unmarked) [Compound 11, 1-(3-Methoxyphenyl)-4-(5-{[(4-methylphenyl)sulfinyl]methyl}-2-furoyl)piperazine]	–	–	–	58-fold	126-fold	0.1	Decrease syn(%) SHSY5Y cells ([4]; @ 1 µM): 14-28 @ 1M^ %; binding to SNCA IRE (fluorescence of sensor R7) [8]: binds strongly
O=C(c1ccc(C[S+]([O-])c2ccccc2Cl)o1)N1CCN(c2ccccc2)CC1 (centres unmarked) [Compound 12, 1-(5-{[(2-Chlorophenyl)sulfinyl]methyl}-2-furoyl)-4-phenylpiperazine]	–	–	–	80-fold	Inc.	0.1	Decrease syn(%) SHSY5Y cells ([4]; @ 0.1-1M): 21-42 @ 0.1-1M %
CCOC(=O)c1[nH]c(C)c(C(=O)c2cc(F)ccc2F)c1C [Compound 13, Ethyl 4-(2,5-difluorobenzoyl)-3,5-dimethyl-1H-pyrrole-2-carboxylate]	–	–	–	53-fold	58-fold	0.2	Decrease syn(%) SHSY5Y cells ([4]; @ 0.1-1M): 20-40 @ 0.1-1M %
COc1ccc(/C=C/C(=O)c2cc(F)ccc2OC(=O)c2ccccc2)cc1OC [Compound 14, 2-[(2E)-3-(3,4-dimethoxyphenyl)prop-2-enoyl]-4-fluorophenyl benzoate]	–	–	–	66-fold	Inc.	0.194	Decrease syn(%) SHSY5Y cells ([4]; @ 0.1 µM): 20-50 @ 0.1M %
Cc1cc(C)cc(Nc2nc3ccc(C)cc3n3cnnc23)c1 [Compound 15, N-(3,5-dimethylphenyl)-8-methyl[1,2,4]triazolo[4,3-a]quinoxalin-4-amine]	–	–	–	43-fold	18-fold	2.8	Decrease syn(%) SHSY5Y cells ([4]; @ 1 µM): 25-50 @ 1M^ %
CCC1=Nc2cc(C(=O)NCCCOC)ccc2Sc2ccccc21 [Compound 16, 11-ethyl-N˜8˜-(3-methoxypropyl)dibenzo[b,f][1,4]thiazepine-8-carboxamide]	–	–	–	68-fold	127-fold	0.127	Decrease syn(%) SHSY5Y cells ([4]; @ 1 µM): 30-60 @ 1M^ %
CN1CC[C@]2(C)c3cc(OC(=O)Nc4ccccc4)ccc3N(C)[C@H]12 [Posiphen, reference compound]	–	–	–	–	–	–	IC50 ([1]; Table 2, H4 cells, luciferase, read-out: IC50/μM (SNCA 5′UTR)): 10 µM; Decrease αsyn(%) SHSY5Y cells ([4]; @10 μM): 25-50 @10%; Decrease syn(%) SHSY5Y cells ([4]; @10 µM): 25-50 @10M ^ %; Decrease αsyn(%) DA neurons ([5]; concentration not given): 25%; Decrease syn(%) DA neurons ([5]; concentration not given): 25%; α-syn levels (Western blot) [6]: reduced; Decrease αsyn(%) X3 SNCA neurons [7]: 5%; Decrease syn(%) X3 SNCA neuron ([7]; Table 3): 5%; binding to SNCA IRE (fluorescence of sensor R7) [8]: no measurable effect or quenching effect
